Laboratory results reported in PubChem BioAssay (NCI).
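1) Cells in 96-well plates. 2) Compound, 48 h, 5 concentrations. 3) Linear interpolation between surrounding doses. 4) Unreached endpoint = highest concentration. TGI is the concentration that stops growth completely.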

Assays:
Experiment in all cases: NCI-60 cell line screen, 48 h
[1] = test system: OVCAR-4 ovarian
[2] = test system: HOP-62 NSCLC
[3] = test system: RXF 393 renal
[4] = test system: K-562 leukemia
[5] = test system: SK-MEL-5 melanoma
[6] = test system: IGROV1 ovarian
[7] = test system: UACC-257 melanoma
[8] = test system: OVCAR-5 ovarian
[9] = test system: SF-539 CNS
[10] = test system: OVCAR-8 ovarian
[11] = test system: MOLT-4 leukemia
[12] = test system: HCC-2998 colon
[13] = test system: NCI-H460 lung
[14] = test system: M14 melanoma
[15] = test system: SW-620 colon
[16] = test system: CCRF-CEM leukemia
[17] = test system: SR leukemia
[18] = test system: SNB-75 CNS
[19] = test system: U251 CNS
[20] = test system: TK-10 renal
[21] = test system: SNB-78 CNS
[22] = test system: UACC-62 melanoma
[23] = test system: COLO 205 colon
[24] = test system: SK-MEL-28 melanoma
[25] = test system: OVCAR-3 ovarian
[26] = test system: ACHN renal
[27] = test system: MALME-3M melanoma
[28] = test system: LXFL 529 NSCLC
[29] = test system: DMS 114 small cell lung
[30] = test system: HL-60(TB) leukemia
[31] = test system: HOP-18 NSCLC
[32] = test system: A549 NSCLC
[33] = test system: CAKI-1 renal
[34] = test system: DMS 273 small cell lung
[35] = test system: SF-295 CNS
[36] = test system: HCT-116 colon
[37] = test system: HOP-92 NSCLC
[38] = test system: LOX IMVI melanoma
[39] = test system: KM12 colon
[40] = test system: HT29 colon
[41] = test system: SN12C renal
[42] = test system: NCI-H23 lung
[43] = test system: NCI-H522 lung
[44] = test system: UO-31 renal
[45] = test system: DLD-1 colon
[46] = test system: XF 498 CNS
[47] = test system: SNB-19 CNS
[48] = test system: M19-MEL melanoma
[49] = test system: SF-268 CNS
[50] = test system: 786-0 renal
[51] = test system: SK-OV-3 ovarian
[52] = test system: NCI-H226 lung
[53] = test system: RPMI-8226 leukemia
[54] = test system: SK-MEL-2 melanoma
[55] = test system: HCT-15 colon
[56] = test system: KM20L2 colon
[57] = test system: EKVX NSCLC
[58] = test system: A498 renal

CCOC(=O)c1cc2c(cn1)[nH]c1cccc(N)c12 showed a TGI [1] of over 100 µM, a TGI [2] of over 100 µM and a TGI [3] of over 100 µM. For the same compound, the TGI [4] was over 100 µM, the TGI [5] was over 100 µM and the TGI [6] was over 100 µM. It also gave a TGI [7] of over 100 µM, a TGI [8] of over 100 µM and a TGI [9] of over 100 µM. It also gave a TGI [10] of over 100 µM, a TGI [11] of over 100 µM and a TGI [12] of over 100 µM. It also gave a TGI [13] of over 100 µM, a TGI [14] of over 100 µM and a TGI [15] of over 100 µM. It also gave a TGI [16] of over 100 µM, a TGI [17] of over 100 µM and a TGI [18] of over 100 µM. The TGI [19] was over 100 µM, the TGI [20] was over 100 µM and the TGI [21] was over 100 µM. The TGI [22] was over 100 µM, the TGI [23] was over 100 µM and the TGI [24] was over 100 µM. For the same compound, the TGI [25] was over 100 µM, the TGI [26] was over 100 µM and the TGI [27] was over 100 µM. It also gave a TGI [28] of over 100 µM, a TGI [29] of over 100 µM and a TGI [30] of 28.6 µM. It also gave a TGI [31] of over 100 µM, a TGI [32] of over 100 µM and a TGI [33] of over 100 µM. The TGI [34] was over 100 µM, the TGI [35] was over 100 µM and the TGI [36] was over 100 µM. The TGI [37] was over 100 µM, the TGI [38] was over 100 µM and the TGI [39] was over 100 µM. The TGI [40] was over 100 µM, the TGI [41] was over 100 µM and the TGI [42] was over 100 µM. It also gave a TGI [43] of over 100 µM, a TGI [44] of over 100 µM and a TGI [45] of over 100 µM. The TGI [46] was over 100 µM, the TGI [47] was over 100 µM and the TGI [48] was over 100 µM. The TGI [49] was over 100 µM and the TGI [50] was over 100 µM.
O=C(NC12CC3CC(CC(C3)C1)C2)C(=O)c1c[nH]c2ccc([N+](=O)[O-])cc12 gave a TGI [51] of over 100 µM, a TGI [1] of 54.4 µM and a TGI [2] of over 59.1 µM. The TGI [3] was over 94.6 µM, the TGI [4] was over 100 µM and the TGI [5] was over 100 µM. For the same compound, the TGI [6] was over 100 µM, the TGI [7] was over 100 µM and the TGI [8] was over 100 µM. It also gave a TGI [9] of over 100 µM, a TGI [10] of over 100 µM and a TGI [11] of over 100 µM. The TGI [12] was over 100 µM, the TGI [13] was over 72.3 µM and the TGI [14] was over 100 µM. The TGI [15] was over 100 µM, the TGI [16] was over 100 µM and the TGI [52] was 63.6 µM. It also gave a TGI [17] of over 100 µM, a TGI [18] of 52.8 µM and a TGI [19] of over 46.8 µM. It also gave a TGI [20] of over 100 µM, a TGI [53] of over 100 µM and a TGI [22] of over 77.1 µM. The TGI [23] was over 100 µM, the TGI [24] was over 100 µM and the TGI [25] was over 100 µM. It also gave a TGI [26] of over 100 µM, a TGI [54] of over 100 µM and a TGI [27] of over 94.5 µM. For the same compound, the TGI [28] was over 100 µM, the TGI [29] was over 100 µM and the TGI [30] was over 100 µM. For the same compound, the TGI [31] was over 90.9 µM, the TGI [55] was over 100 µM and the TGI [56] was over 100 µM. It also gave a TGI [32] of over 41.1 µM, a TGI [33] of over 100 µM and a TGI [34] of 45 µM. It also gave a TGI [35] of 37.9 µM, a TGI [36] of over 100 µM and a TGI [37] of over 90.5 µM. For the same compound, the TGI [57] was over 100 µM, the TGI [38] was over 52 µM and the TGI [39] was over 100 µM. It also gave a TGI [40] of over 100 µM, a TGI [41] of over 100 µM and a TGI [42] of over 100 µM. It also gave a TGI [43] of over 100 µM, a TGI [44] of over 100 µM and a TGI [46] of 60.6 µM. For the same compound, the TGI [47] was over 30.3 µM, the TGI [48] was over 100 µM and the TGI [49] was 43.4 µM. For the same compound, the TGI [58] was 98 µM and the TGI [50] was 45.9 µM.
